Results as given in US20230313199A1, “TARGET FOR MODULATING BODY MASS” (Massachusetts Institute of Technology, priority 2020, published 2023).

Tests used:
MCF7 cells = test: Oxygen consumption rate, parental MCF7 cells; type: cell-based, human; settings: 40 μM heme for 1 hour
[1] = target: T1, interaction between HMOX1 and MFSD7C (Mus musculus, UniProt Q91X85); test: Co-IP of HA-tagged MFSD7C with FLAG-tagged HMOX1 in transfected 293FT cells; type: cell-based, murine; settings: 10 μM or 40 μM heme for one hour before cell lysis
T1 construct: expressed in transfected cells; host or cells: 293FT cells
T1 sequence (Q91X85 whole entry): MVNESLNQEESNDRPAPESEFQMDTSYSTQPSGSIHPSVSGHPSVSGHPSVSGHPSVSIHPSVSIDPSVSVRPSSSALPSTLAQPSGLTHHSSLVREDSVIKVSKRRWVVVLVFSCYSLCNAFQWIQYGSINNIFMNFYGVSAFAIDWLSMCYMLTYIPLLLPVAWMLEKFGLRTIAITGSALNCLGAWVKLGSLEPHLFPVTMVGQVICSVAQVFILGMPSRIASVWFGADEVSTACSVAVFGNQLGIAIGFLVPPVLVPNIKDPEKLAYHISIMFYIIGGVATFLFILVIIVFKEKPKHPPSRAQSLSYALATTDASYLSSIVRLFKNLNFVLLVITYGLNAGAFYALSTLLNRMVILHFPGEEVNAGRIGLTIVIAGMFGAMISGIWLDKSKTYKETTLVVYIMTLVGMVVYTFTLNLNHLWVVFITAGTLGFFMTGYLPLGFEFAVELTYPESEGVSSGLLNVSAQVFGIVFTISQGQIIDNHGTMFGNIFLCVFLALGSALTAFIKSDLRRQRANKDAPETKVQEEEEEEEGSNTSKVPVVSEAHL
T1 sequence (P14901 whole entry partner): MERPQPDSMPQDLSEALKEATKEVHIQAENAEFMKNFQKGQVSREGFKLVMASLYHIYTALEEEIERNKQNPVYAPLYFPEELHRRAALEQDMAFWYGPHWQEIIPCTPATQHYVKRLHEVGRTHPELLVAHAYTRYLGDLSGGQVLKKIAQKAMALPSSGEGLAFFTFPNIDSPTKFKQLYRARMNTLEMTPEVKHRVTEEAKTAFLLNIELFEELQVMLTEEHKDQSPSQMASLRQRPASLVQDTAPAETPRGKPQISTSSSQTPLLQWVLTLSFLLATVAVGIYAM
Protocol: Co-transfection and immunoprecipitation. For co-IP, HA-tagged MFSD7C was co-transfected with FLAG-tagged HMOX1 (Origene Catalog No. MR203944), CYC1, COX4I1, NDUFA4, ATP5h, ATP5c1 into 293FT cells using TransIT®-LT1 Transfection Reagent (Mirus). Thirty-six hours after transfection, the cells were lysed using cold Lysis Buffer containing 20 mM Tris-HCl (pH 7.4), 150 mM NaCl, 0.1% NP-40, 10% glycerol, proteinase inhibitor (Sigma Catalog No. 4693132001), and phosphatase inhibitors (Sigma Catalog No. 4906845001). The clear supernatants from the lysate were incubated with M2-magnetic beads conjugated with anti-FLAG antibody (Sigma Catalog No. M8823) for 2 hours at 4° C. Then the beads were washed twice and eluted by the 3× FLAG peptides (Sigma Catalog No. F4799).
To determine the effect of heme on MFSD7C interactions with ETC components, HMOX1 or SERCA2b, 293FT cells were transiently transfected with HA-tagged murine MFSD7C and FLAG-tagged murine CYC1, NDUFA4, COX4i1, ATP5h, ATP5c1, HMOX1 or SERCA2b. 35 hrs later, co-transfected cells were incubated with DMSO (vehicle) or 10 μM or 40 μM of heme for one hour before lysis. Cell lysates were precipitated with anti-HA antibody, eluted with HA peptide, further precipitated with anti-FLAG antibody, eluted with FLAG peptide, and then subjected to Western blotting with anti-HA and anti-FLAG antibodies. […]

HP motif peptide = target: T2, HP motif peptide (Homo sapiens, UniProt Q9UPI3); test: Isothermal titration calorimetry of HP motif peptide binding to heme (one-site model)
T2 construct: a synthetic 14-amino acid HP motif peptide; made in house; host or cells: chemical solid-phase synthesis (Koch Institute Biopolymers & Proteomics Core)

4B8^ΔN cells = test: OCR, ECAR, FPT intensity and MMP in 4B8 cells complemented with NTD-truncated MFSD7C; type: cell-based, human; settings: heme 1 hour
Protocol: FIGS. 4A-4H show NTD of MFSD7C mediates heme effect on mitochondrial respiration. FIGS. 4A-4C show comparison of basal OCR (FIG. 4A), maximal OCR (FIG. 4B) and ECAR (FIG. 4C) of THP-1, 4B8, and 4B8^FL and 4B8^ΔN cells treated with vehicle or heme for 1 hour (n=18 separate experiments). […] Cells were incubated with FPT for 6 hrs, washed and reseeded in poly-lysine coated glass bottom dishes. After cells attached to the glass, medium containing 40 μM heme was added. Cells in the same field were imaged immediately and again 1 hour later. Relative FPT fluorescent intensities, normalized to THP-1, from three experiments are shown. (n=3 independent experiments). […] THP-1, 4B8, 4B8^FL and 4B8^ΔN cells were treated with vehicle or heme for 1 hour and MMP was measured by using JC-10 Mitochondrial Membrane Potential Assay Kit followed by flow cytometry. […] Shown are representative Western blotting data (FIG. 4G) and quantification of band intensities from n=3 independent experiments (FIG. 4H). P-values were calculated using two-way ANOVA (*p<0.05, **p<0.01, ***p<0.005). […]
Measurements of OCR, ECAR, and MMP. Oxygen consumption rate (OCR) and extracellular acidification rate (ECAR) were measured using XF96e Seahorse Extracellular Flux Analyzer per manufacturer's protocol. […]

SMILES: C=CC1=C(C)c2cc3[n-]c(cc4[n-]c(cc5nc(cc1n2)C(C)=C5C=C)c(C)c4CCC(=O)O)c(CCC(=O)O)c3C.[Fe+2] [heme]
- OCR (MCF7 cells): significantly stimulated
- interaction between HMOX1 and MFSD7C (co-IP) [1]: enhanced
- binding stoichiometry heme : HP motif peptide (HP motif peptide): one heme bound to one HP motif peptide
- response to heme (OCR, ECAR, FPT intensity, MMP) (4B8^ΔN cells): little to no response to heme
